What was measured:
[1] = test system: KARPAS-422; assay: Combination of EPZ-6438 and other therapeutic agents (4+3 model), KARPAS-422; details: Mutant EZH2 GCB
[2] = test system: OCI-LY19; assay: Combination of EPZ-6438 and other therapeutic agents (4+3 model), OCI-LY19; details: WT EZH2 GCB; 4+3 model
[3] = test system: SU-DHL-6; assay: Combination of EPZ-6438 and other therapeutic agents (4+3 model), SU-DHL-6; details: Mutant EZH2 GCB
[4] = test system: WSU-DLCL2; assay: Combination of EPZ-6438 and other therapeutic agents (4+3 model), WSU-DLCL2; details: Mutant EZH2 GCB; EPZ-6438 4 days then co-treatment 3 days (4+3 model)
[5] = test system: OCI-LY3; assay: Combination of EPZ-6438 and other therapeutic agents (4+3 model), OCI-LY3; details: WT EXH2 ABC
[6] = test system: RC-K8; assay: Combination of EPZ-6438 and other therapeutic agents (4+3 model), RC-K8; details: WT EXH2 ABC
[7] = test system: SU-DHL-10; assay: Combination of EPZ-6438 and other therapeutic agents (4+3 model), SU-DHL-10; details: Mutant EZH2 GCB
[8] = test system: SUDHL5; assay: Combination of EPZ-6438 and other therapeutic agents (4+3 model), SUDHL5; details: WT EZH2 GCB
[9] = test system: TMD8; assay: Combination of EPZ-6438 and other therapeutic agents (4+3 model), TMD8; details: WT EXH2 ABC
[10] = test system: SUDHL2; assay: Combination of EPZ-6438 and other therapeutic agents (4+3 model), SUDHL2; details: WT EXH2 ABC
[11] = test system: DOHH2; assay: Combination of EPZ-6438 and other therapeutic agents (4+3 model), DOHH2; type: cell-based; details: WT EZH2 GCB
[12] = test system: Farage; assay: Combination of EPZ-6438 and other therapeutic agents (4+3 model), Farage; details: WT EZH2 GCB
[13] = test system: OCI-LY7; assay: Combination of EPZ-6438 and other therapeutic agents (4+3 model), OCI-LY7; details: WT EZH2 GCB
[14] = test system: HT; assay: Combination of EPZ-6438 and other therapeutic agents (4+3 model), HT; details: WT EZH2 GCB

Molecule	combination effect with EPZ-6438, KARPAS-422 [1]	combination effect with EPZ-6438, SU-DHL-6 [3]	combination effect with EPZ-6438, WSU-DLCL2 [4]	combination effect with EPZ-6438, SU-DHL-10 [7]	combination effect with EPZ-6438, SUDHL5 [8]	also measured
CC1(C)CCC(CN2CCN(c3ccc(C(=O)NS(=O)(=O)c4ccc(NCC5CCOCC5)c([N+](=O)[O-])c4)c(Oc4cnc5[nH]ccc5c4)c3)CC2)=C(c2ccc(Cl)cc2)C1 [ABT-199]	S	ADD.	S	ADD.		combination effect with EPZ-6438, OCI-LY19 [2]: S; combination effect with EPZ-6438, OCI-LY3 [5]: S; combination effect with EPZ-6438, RC-K8 [6]: S
COc1cc(Nc2ncc3c(n2)-c2ccc(Cl)cc2C(c2c(F)cccc2OC)=NC3)ccc1C(=O)O [Alisertib]			ADD.	ADD.	ADD.	
Cc1nc(Nc2ncc(C(=O)Nc3c(C)cccc3Cl)s2)cc(N2CCN(CCO)CC2)n1 [Dasatinib]			S	S	S	combination effect with EPZ-6438, TMD8 [9]: S
Cn1cc(C2=C(c3cn(C4CCN(Cc5ccccn5)CC4)c4ccccc34)C(=O)NC2=O)c2ccccc21 [Enzastaurin]			ADD.	S	ADD.	
COc1cc([C@@H]2c3cc4c(cc3[C@@H](O[C@@H]3O[C@@H]5CO[C@@H](C)O[C@H]5[C@H](O)[C@H]3O)[C@H]3COC(=O)[C@H]23)OCO4)cc(OC)c1O [Etoposide]	S		S		S	
Cc1cnc(Nc2ccc(OCCN3CCCC3)cc2)nc1Nc1cccc(S(=O)(=O)NC(C)(C)C)c1 [Fedratinib]						combination effect with EPZ-6438, SUDHL2 [10]: ADD.
CC(C)NC[C@@H](C(=O)N1CCN(c2ncnc3c2[C@H](C)C[C@H]3O)CC1)c1ccc(Cl)cc1 [GDC0068, Ipatasertib]	S		S		S	
CCn1c(-c2nonc2N)nc2c(C#CC(C)(C)O)ncc(OC[C@H]3CCCNC3)c21 [GSK690693]	S		S		S	
CCn1cc(-c2ccnc3[nH]c(-c4cccc(CN(C)C)c4)cc23)c(-c2ccc(NC(=O)N(C)C)cc2)n1 [GSK1070916]			S	ADD.		
COc1ncc(-c2ccc3nccc(-c4ccnnc4)c3c2)cc1NS(=O)(=O)c1ccc(F)cc1F [GSK2126458, Omipalisib]	S		S		S	
CCOC(=O)CCNc1cc(N2CCc3ccccc3CC2)nc(-c2ccccn2)n1 [GSK J4]		ADD.	ADD.			combination effect with EPZ-6438, OCI-LY19 [2]: ADD.; combination effect with EPZ-6438, DOHH2 [11]: ADD.; combination effect with EPZ-6438, RC-K8 [6]: ADD.; combination effect with EPZ-6438, SUDHL2 [10]: ADD.
CC[C@H](Nc1ncnc2[nH]cnc12)c1nc2cccc(F)c2c(=O)n1-c1ccccc1 [Idelalisib]	S	S	S	S	S	combination effect with EPZ-6438, Farage [12]: S; combination effect with EPZ-6438, OCI-LY7 [13]: S; combination effect with EPZ-6438, OCI-LY3 [5]: S; combination effect with EPZ-6438, RC-K8 [6]: S; combination effect with EPZ-6438, TMD8 [9]: S; combination effect with EPZ-6438, HT [14]: S
Cc1sc2c(c1C)C(c1ccc(Cl)cc1)=N[C@@H](CC(=O)OC(C)(C)C)c1nnc(C)n1-2 [JQ1]	S	S	S			combination effect with EPZ-6438, OCI-LY19 [2]: S; combination effect with EPZ-6438, RC-K8 [6]: S; combination effect with EPZ-6438, SUDHL2 [10]: S
Nc1cccc2c1CN(C1CCC(=O)NC1=O)C2=O (stereo not shown) [Lenalidomide]						combination effect with EPZ-6438, RC-K8 [6]: S
NC1(c2ccc(-c3nc4ccn5c(=O)[nH]nc5c4cc3-c3ccccc3)cc2)CCC1 [MK-2206]	S	S	S	S	S	combination effect with EPZ-6438, Farage [12]: S; combination effect with EPZ-6438, OCI-LY19 [2]: S; combination effect with EPZ-6438, OCI-LY7 [13]: S; combination effect with EPZ-6438, OCI-LY3 [5]: S; combination effect with EPZ-6438, RC-K8 [6]: S; combination effect with EPZ-6438, TMD8 [9]: S; combination effect with EPZ-6438, HT [14]: S
CN(Cc1cnc2nc(N)nc(N)c2n1)c1ccc(C(=O)N[C@@H](CCC(=O)O)C(=O)O)cc1 [Methotrexate]			ANTAG.			combination effect with EPZ-6438, OCI-LY19 [2]: ANTAG.; combination effect with EPZ-6438, DOHH2 [11]: ANTAG.; combination effect with EPZ-6438, RC-K8 [6]: ANTAG.; combination effect with EPZ-6438, SUDHL2 [10]: ANTAG.
CC1(C)CCC(c2ccc(Cl)cc2)=C(CN2CCN(c3ccc(C(=O)NS(=O)(=O)c4ccc(N[C@H](CCN5CCOCC5)CSc5ccccc5)c(S(=O)(=O)C(F)(F)F)c4)cc3)CC2)C1 [Navitoclax]	S	S	S	S		combination effect with EPZ-6438, OCI-LY19 [2]: S; combination effect with EPZ-6438, OCI-LY7 [13]: S; combination effect with EPZ-6438, OCI-LY3 [5]: S; combination effect with EPZ-6438, RC-K8 [6]: S
COC1=CC(c2cc3ccccc3[nH]2)=N/C1=C\c1[nH]c(C)cc1C [Obatoclax]	S	ADD.	ADD.	ADD.		
CC(=O)c1c(C)c2cnc(Nc3ccc(N4CCNCC4)cn3)nc2n(C2CCCC2)c1=O [Palbociclib]	S		S		S	
CN(C)C(=O)c1cc2cnc(Nc3ccc(N4CCNCC4)cn3)nc2n1C1CCCC1 [Ribociclib]	S		S		S	
N#CC[C@H](C1CCCC1)n1cc(-c2ncnc3[nH]ccc23)cn1 [Ruxolitinib]				S		combination effect with EPZ-6438, TMD8 [9]: S
CNC(=O)c1cc(Oc2ccc(NC(=O)Nc3ccc(Cl)c(C(F)(F)F)c3)cc2)ccn1 [Sorafenib]			ADD.			
COc1cc(Nc2ncc(F)c(Nc3ccc4c(n3)NC(=O)C(C)(C)O4)n2)cc(OC)c1OC [Tamatinib]	S	S	S	S	S	combination effect with EPZ-6438, Farage [12]: S; combination effect with EPZ-6438, OCI-LY7 [13]: S; combination effect with EPZ-6438, OCI-LY3 [5]: S; combination effect with EPZ-6438, SUDHL2 [10]: S; combination effect with EPZ-6438, TMD8 [9]: S; combination effect with EPZ-6438, HT [14]: S
CC(=O)Nc1cccc(-n2c(=O)n(C3CC3)c(=O)c3c(Nc4ccc(I)cc4F)n(C)c(=O)c(C)c32)c1 [Trametinib]	S	S	S	S	S	combination effect with EPZ-6438, Farage [12]: S; combination effect with EPZ-6438, OCI-LY7 [13]: S; combination effect with EPZ-6438, OCI-LY3 [5]: S; combination effect with EPZ-6438, TMD8 [9]: S
CC(C)C[C@H](NC(=O)[C@H](Cc1ccccc1)NC(=O)c1cnccn1)B(O)O [Velcade]		ADD.	ADD.	ADD.		
CCCS(=O)(=O)Nc1ccc(F)c(C(=O)c2c[nH]c3ncc(-c4ccc(Cl)cc4)cc23)c1F [Vemurafenib]			ADD.			
OG-L002						combination effect with EPZ-6438, SUDHL2 [10]: ANTAG.
Rituximab: therapeutic agent combined with EPZ-6438; component of R-CHOP		S	S			
